Results from patent US6989158B1, “Gold-containing chemotherapeutic agents” (The Curators of the University of Missouri, priority 1999, dated 2006).

Experiments:
[1] = tested on: interperitoneal P388 leukemia; settings: in vivo; cited from earlier work
[2] = Deaths of tumor bearing mice at larger doses; type: in vivo; settings: doses significantly larger than in the table (20–25 μg/kg)
[3] = Side effects in mice models; type: in vivo; settings: preliminary findings
[4] = tested on: cells derived from human colon carcinoma; assay: in vitro tumor growth suppression, cells derived from human colon carcinoma; type: cell-based; settings: specific human cancer cell lines
Description: When the non-radioactive analogue of the gold complex of THP [(Au(THP)4)]

HCT-15 cells = assay: Histogram (cell cycle) studies; type: cell-based; settings: 200 or 40 μg/ml, two days incubation
Procedure: Histogram studies were carried out using HCT-15 cells. In the enclosed figure that summarize histogram results the cells are numbered as follows: HCT-80 is the control; HCT-81 refers to a sample with 200 μg/ml of the gold compound; HCT-82 refers to a sample with 40 μg/ml of gold compound.
HCT-15 cells were incubated in 5% CO2 incubator for two days. Then the cells were harvested and analyzed using fluorescent techniques. […] This finding is in sharp contrast to he cytotoxic side effects of cisplatin which is known to cause disassociation of many phases. Additionally, most agents which are cytotoxic, block S or M+G2 phase after culturing for two days. The mode of cell suppression via G1 phase elongation, as observed for the gold compound, therefore functions differently.

Meth/A cells = assay: In vivo study, survival of Meth/A tumor bearing mice; parameters: species or system Balb/C mice
peritoneal cancer cells = settings: in vivo; cited from earlier work
solid tumor models = settings: in vivo; cited from earlier work
[5] = in vivo; cited from earlier work

CC[PH](CC)(CC)[Au][S][C@@H]1O[C@H](COC(C)=O)[C@@H](OC(C)=O)[C@H](OC(C)=O)[C@H]1OC(C)=O [Auranofin, (2,3,4,6-tetra-O-aceytl-1-thio-β-D-glucopyranosato-S)-(triethylphosphine) gold(I)]
activity against interperitoneal P388 leukemia [1]: active

N.N.[Cl][Pt][Cl] [Cisplatin, cisplatin]
deaths of tumor bearing mice [2]: resulted in the death of animals

OCP(CO)CO.OCP(CO)CO.OCP(CO)CO.OCP(CO)CO.[Au+].[Cl-] [[Au(THP)4]Cl]
toxic side effects [3]: no toxic cardiovascular or naphrotoxic side effects
deaths of tumor bearing mice [2]: did not result in deaths of tumor bearing mice
tumor cell suppression [4]: remarkable activity in suppressing tumor growth
effect on G1 phase of the cell cycle (HCT-15 cells): elongates G1 phase
survival of tumor bearing mice (Meth/A cells): remarkable survival of tumor bearing mice

[Au+].[Cl-].c1ccc(P(CCP(c2ccccc2)c2ccccc2)c2ccccc2)cc1.c1ccc(P(CCP(c2ccccc2)c2ccccc2)c2ccccc2)cc1 [[Au(dppe)2]Cl]
activity against peritoneal cancer cells (peritoneal cancer cells): marked activity
activity against solid tumor models (solid tumor models): only slightly active
toxicity in preclinical toxicology studies [5]: cardiotoxicity
